Measured values published in patent US9133204B2, “5-membered heterocyclic amides and related compounds” (H. Lundbeck A/S, priority 2007, dated 2015).
pIC50: −log10 of the molar value.

Biological target: T1, P2X7 receptor (Homo sapiens, UniProt Q99572)
T1 construct: host or cells: SH-SY5Y
T1 sequence (Q99572 1-595): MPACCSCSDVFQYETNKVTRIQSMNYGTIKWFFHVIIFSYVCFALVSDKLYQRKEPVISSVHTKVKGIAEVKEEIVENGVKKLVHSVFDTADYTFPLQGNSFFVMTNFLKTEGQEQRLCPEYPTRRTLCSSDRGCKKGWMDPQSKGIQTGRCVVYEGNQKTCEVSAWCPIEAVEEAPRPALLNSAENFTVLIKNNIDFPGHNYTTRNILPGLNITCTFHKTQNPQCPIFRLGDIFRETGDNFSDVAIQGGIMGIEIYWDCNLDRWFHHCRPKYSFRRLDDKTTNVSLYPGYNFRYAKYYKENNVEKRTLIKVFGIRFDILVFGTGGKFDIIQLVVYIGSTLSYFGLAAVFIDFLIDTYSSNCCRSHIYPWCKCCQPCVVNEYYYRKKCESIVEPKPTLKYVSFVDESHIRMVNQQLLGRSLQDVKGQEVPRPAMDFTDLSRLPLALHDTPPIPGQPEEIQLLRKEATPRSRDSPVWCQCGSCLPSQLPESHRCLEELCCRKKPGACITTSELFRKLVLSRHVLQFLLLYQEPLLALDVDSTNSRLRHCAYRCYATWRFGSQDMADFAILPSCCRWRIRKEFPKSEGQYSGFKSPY
Test: High throughput P2X7 calcium mobilization assay (Example 4A)
Type: cell-based
Conditions: SH-SY5Y cells, 50% decrease in fluorescence response of cells exposed to 80 μM BzATP
Procedure: A. High Throughput Assay of P2X7 Receptors
SH-SY5Y cells, ATCC Number CRL-2266, (American Type Culture Collection, Manassas, Va.) are cultured under DMEM/High medium supplemented with 10% FBS, and 10 mM HEPES (Invitrogen Corp., Carlsbad, Calif.) in 5% CO2 and at 37° C. One day prior to the experiment, cells are plated at a density of 100,000 cells/well in a 96 well black/clear TC plate (Corning® Costar®, Sigma-Aldrich Co., St. Louis, Mo.). At the beginning of the experiment, the culture medium is removed and cells are incubated with 50 μL of 2.3 μM Fluo-4 AM dye (Invitrogen Corp.) in the assay solution (5 mM KCl, 9.6 mM NaH2PO4.H2O, 25 mM HEPES, 280 mM sucrose, 5 mM glucose, and 0.5 mM CaCl2; pH is adjusted to 7.4 with NaOH) for an hour at 37° C. After one hour dye incubation, wells are rinsed once with 50 μL assay solution, and are then incubated for an hour at room temperature with 100 μL assay solution containing the test compound. The final concentration of test compound generally ranges from 1 to 2500 nM; for positive control cells, no test compound is added. After the one hour incubation, plates are transferred to a FLIPR^TETRA instrument (Molecular Devices, Sunnyvale, Calif.) for calcium mobilization analysis.
For determination of antagonist activity, 50 μL, of P2X7 agonist (2′(3)-O-(4-benzoyl-benzoyl)adenosine 5′-triphosephate (BzATP; Sigma-Aldrich) in the assay solution is transferred using the FLIPR into the plate, such that the final agonist concentration is 80 μM (about EC50). In negative control cells, 50 μL of assay solution without agonist is added at this stage. The peak fluorescence signal over a 2 minute period is then measured.
First, the average maximum relative fluorescent unit (RFU) response from the negative control wells (no agonist) is subtracted from the maximum response detected for each of the other experimental wells. Second, average maximum RFU response is calculated for the positive control wells (agonist wells).

[1] = flag after the MS data in Examples 1-2

pIC50 (Table I) | pIC50 [1] | Structure (SMILES)
≥ 5.70 | – | Cc1nn(-c2ncc(F)cn2)cc1C(=O)NCC12CC3CC(CC(C3)C1)C2 [Compound 112, N-(adamantan-1-ylmethyl)-1-(5-fluoropyrimidin-2-yl)-3-methyl-1H-pyrazole-4-carboxamide]
≥ 5.70 | – | CCC(CNC(=O)c1cn(-c2ncccn2)nc1C(F)(F)F)c1ccccc1 (stereo not shown) [Compound 207, N-(2-phenylbutyl)-1-pyrimidin-2-yl-3-(trifluoromethyl)-1H-pyrazole-4-carboxamide]
≥ 5.70 | – | CCc1nc(-c2ncccn2)sc1C(=O)NCC1(c2ccc(Cl)nc2)CCCC1 [Compound 288, N-{[1-(6-chloropyridin-3-yl)cyclopentyl]methyl}-4-ethyl-2-pyrimidin-2-yl-1,3-thiazole-5-carboxamide]
≥ 5.70 | – | Cc1nc(-c2ncccn2)sc1C(=O)NCC(CC(C)C)c1ccc(C(F)(F)F)cc1 (stereo not shown) [Compound 290, 4-methyl-N-{4-methyl-2-[4-(trifluoromethyl)phenyl]pentyl}-2-pyrimidin-2-yl-1,3-thiazole-5-carboxamide]
≥ 5.70 | – | CC(C)CC(CNC(=O)c1sc(-c2ncccn2)nc1C(F)(F)F)c1ccc(Cl)nc1 (stereo not shown) [Compound 292, N-[2-(6-chloropyridin-3-yl)-4-methylpentyl]-2-pyrimidin-2-yl-4-(trifluoromethyl)-1,3-thiazole-5-carboxamide]
≥ 5.70 | – | CC(C)CC(CNC(=O)c1sc(-c2ncccn2)nc1C(F)(F)F)c1cccnc1 (stereo not shown) [Compound 320, N-(4-methyl-2-pyridin-3-ylpentyl)-2-pyrimidin-2-yl-4-(trifluoromethyl)-1,3-thiazole-5-carboxamide]
≥ 5.70 | – | CCc1nc(-c2ncccn2)sc1C(=O)NCC1(c2ccc(Cl)cc2)CCCCC1 [Compound 276, N-{[1-(4-chlorophenyl)cyclohexyl]methyl}-4-ethyl-2-pyrimidin-2-yl-1,3-thiazole-5-carboxamide]
≥ 5.70 | – | Cc1csc(C(=O)NCC23CC4CC(CC(C4)C2)C3)c1Cl [Compound 87, N-(adamantan-1-ylmethyl)-3-chloro-4-methylthiophene-2-carboxamide]
≥ 5.70 | – | NC1CCN(c2nc(C(F)(F)F)c(C(=O)NCC3(c4cccnc4)CCCCC3)s2)CC1 [Compound 303, 2-(4-aminopiperidin-1-yl)-N-[(1-pyridin-3-ylcyclohexyl)methyl]-4-(trifluoromethyl)-1,3-thiazole-5-carboxamide]
≥ 5.70 | – | Cc1nn(-c2cnccn2)cc1C(=O)NCC1(c2ccc(C(F)(F)F)cc2)CCCCC1 [Compound 184, 3-methyl-1-pyrazin-2-yl-N-({1-[4-(trifluoromethyl)phenyl]cyclohexyl}methyl)-1H-pyrazole-4-carboxamide]
≥ 5.70 | – | O=C(NCC1(c2cccnc2)CCCCC1)c1sc(-c2ncccn2)nc1C(F)(F)F [Compound 161, N-[(1-pyridin-3-ylcyclohexyl)methyl]-2-pyrimidin-2-yl-4-(trifluoromethyl)-1,3-thiazole-5-carboxamide]
– | ≥ 5.70 | Cc1nc(-c2cccnc2)sc1C(=O)NCC1(c2ccc(Cl)cc2)CCOCC1 [Compound 37, N-{[4-(4-Chlorophenyl)tetrahydro-2H-pyran-4-yl]methyl}-4-methyl-2-pyridin-3-yl-1,3-thiazole-5-carboxamide]
≥ 5.70 | – | O=C(NC1C2CC3CC(C2)CC1C3)c1cn(-c2ncccn2)nc1C(F)(F)F (stereo not shown) [Compound 217, N-adamantan-2-yl-1-pyrimidin-2-yl-3-(trifluoromethyl)-1H-pyrazole-4-carboxamide]
≥ 5.70 | – | Cc1nn(-c2nccc(N)n2)cc1C(=O)NCC(CC(C)C)c1ccc(C(F)(F)F)cc1 (stereo not shown) [Compound 173, 1-(4-aminopyrimidin-2-yl)-3-methyl-N-{4-methyl-2-[4-(trifluoromethyl)phenyl]pentyl}-1H-pyrazole-4-carboxamide]
≥ 5.70 | – | CC(C)CC(CNC(=O)c1sc(N2CC[C@@H](N(C)C)C2)nc1C(F)(F)F)c1ccc(C(F)(F)F)cc1 (stereo partly drawn) [Compound 163, 2-[(3R)-3-(dimethylamino)pyrrolidin-1-yl]-N-{4-methyl-2-[4-(trifluoromethyl)phenyl]pentyl}-4-(trifluoromethyl)-1,3-thiazole-5-carboxamide]
≥ 5.70 | – | CC(C)CC(CNC(=O)c1cn(-c2ncccn2)nc1C(F)(F)F)c1ccccc1 (stereo not shown) [Compound 209, N-(4-methyl-2-phenylpentyl)-1-pyrimidin-2-yl-3-(trifluoromethyl)-1H-pyrazole-4-carboxamide]
– | ≥ 5.70 | O=C(NCC1(c2cccnc2)CCCCC1)c1cn(-c2nccn3ccnc23)nc1C(F)(F)F [Compound 14, 1-Imidazo[1,2-a]pyrazin-8-yl-3-trifluoromethyl-1H-pyrazole-4-carboxylic acid (1-pyridin-3-yl-cyclohexylmethyl)-amide]
≥ 5.70 | – | Nc1nc(-n2cc(C(=O)NCC3(c4ccc(Cl)cc4)CCCCC3)c(C(F)(F)F)n2)ncc1F [Compound 141, 1-(4-amino-5-fluoropyrimidin-2-yl)-N-{[1-(4-chlorophenyl)cyclohexyl]methyl}-3-(trifluoromethyl)-1H-pyrazole-4-carboxamide]
≥ 5.70 | – | CC(C)(C)OC(=O)NC1CCN(c2nc(C(F)(F)F)c(C(=O)NCC3(c4cccnc4)CCCCC3)s2)CC1 [Compound 301, tert-butyl {1-[5-{[(1-pyridin-3-ylcyclohexyl)methyl]carbamoyl}-4-(trifluoromethyl)-1,3-thiazol-2-yl]piperidin-4-yl}carbamate]
– | ≥ 5.70 | Cc1nc(-c2cccnc2)sc1C(=O)NCC1(c2ccc(Cl)c(F)c2)CCCCC1 [Compound 39, N-{[1-(4-chloro-3-fluorophenyl)cyclohexyl]methyl}-4-methyl-2-pyridin-3-yl-1-,3-thiazole-5-carboxamide]
≥ 5.70 | – | Cc1nn(-c2ccncc2)cc1C(=O)NCC12CC3CC(CC(C3)C1)C2 [Compound 101, N-(adamantan-1-ylmethyl)-3-methyl-1-pyridin-4-yl-1H-pyrazole-4-carboxamide]
≥ 5.70 | – | O=C(NCC1(c2ccc(C(F)(F)F)cc2)CCCCC1)c1cn(-c2ncccn2)nc1C(F)(F)F [Compound 196, 1-pyrimidin-2-yl-3-(trifluoromethyl)-N-({1-[4-(trifluoromethyl)phenyl]cyclohexyl]methyl)-1H-pyrazole-4-carboxamide]
≥ 5.70 | – | COc1cnc(-n2cc(C(=O)NCC3(c4cccnc4)CCCCC3)c(C(F)(F)F)n2)nc1 [Compound 191, 1-(5-methoxypyrimidin-2-yl)-N-[(1-pyridin-3-ylcyclohexyl)methyl]-3-(trifluoromethyl)-1H-pyrazole-4-carboxamide]
≥ 5.70 | – | Cn1ccnc1-n1cc(C(=O)NCC23CC4CC(CC(C4)C2)C3)c(C(F)(F)F)n1 [Compound 142, N-(adamantan-1-ylmethyl)-1-(1-methyl-1H-imidazol-2-yl)-3-(trifluoromethyl)-1H-pyrazole-4-carboxamide]
≥ 5.70 | – | Cc1cc(C(=O)NCC23CC4CC(CC(C4)C2)C3)n(C)n1 [Compound 46, N-(adamantan-1-ylmethyl)-1,3-dimethyl-1H-pyrazole-5-carboxamide]
≥ 5.70 | – | O=C(NCC1(c2ccc(Cl)nc2)CCCC1)c1sc(-c2ncccn2)nc1C(F)(F)F [Compound 287, N-{[1-(6-chloropyridin-3-yl)cyclopentyl]methyl}-2-pyrimidin-2-yl-4-(trifluoromethyl)-1,3-thiazole-5-carboxamide]
≥ 5.70 | – | CC(C)c1nn(-c2ncc(F)cn2)cc1C(=O)NCC12CC3CC(CC(C3)C1)C2 [Compound 127, N-(adamantan-1-ylmethyl)-1-(5-fluoropyrimidin-2-yl)-3-isopropyl-1H-pyrazole-4-carboxamide]

Structure (SMILES) | pIC50 (Table I) | pIC50 [1]
O=C(NCC12CC3CC(CC(C3)C1)C2)c1cn(-c2ncccn2)nc1C(F)(F)F [Compound 129, N-(adamantan-1-ylmethyl)-1-pyrimidin-2-yl-3-(trifluoromethyl)-1H-pyrazole-4-carboxamide] | ≥ 5.70 | –
